One assay relates to procollagen I. The assay is described as follows: In vitro skin biomarker test, procollagen I ELISA in MatTek human skin equivalent. The assay is classed as cell-based. Particulars: average of cultures, 24 hours after treatment; Glyco-Repair 3% topical, TGF-b 2 ng/mL in media. As for the experimental part:
(§1) The model used in the test is a MatTek™ brand human skin equivalent available from the MatTek Corporation, which is a full thickness culture system that emulates normal human skin properties and function. The MatTek™ brand skin model contains a three-dimensional, highly differentiated human epidermis with 8-12 cell layers including basal, spinous, granular and stratum corneum layers. The epidermis is grown above a human dermal fibroblast-containing collagen matrix. The skin model is configured to permit the topical application of test materials to the stratum corneum surface of the model. The skin model cultures are supplied in 24-well plate. Each well of the plate includes a snap-well fitting and the skin culture in a media-supplemented agarose gel.
(§2) Prior to testing, the skin model cultures are examined for visual defects and equilibrated overnight at 37° C., 5% CO2, and 95% RH. The skin cultures were transferred to fresh 24-well plates by removing the snap-well fitting along with the skin culture and placing it in a well of the new plate. […]
(§3) Twenty-four hours after treatment, the skin cultures were removed from the incubator and visually inspected for defects (e.g., to see if media leaked up through the culture insert). […] The supernatant was collected and analyzed with a Micro BCA kit to quantitate protein concentration. […]
On the technique in general: In an ELISA, binding on a coated surface is turned into a signal by an enzyme label.

For the next assay, the system named is hyalauronic acid. The assay is described as follows: In vitro skin biomarker test, hyalauronic acid ELISA in MatTek human skin equivalent. The assay is classed as cell-based. The conditions noted are these: 24 hours after treatment, Glyco-Repair 3% topical, TGF-b 2 ng/mL in media. The procedure: as §1, §2, §3

Where “and” joins values, the source holds several entries; their conditions need not be identical. Equal entries are not always repeated.

In the case of transforming growth factor beta [TGF-b], the “Avg Normalized Protein (procollagen I)” value in the assay with procollagen I is 29.8. Besides, in the assay on hyalauronic acid (average of cultures), the “Avg (normalized protein, hyalauronic acid)” value is 2.8. In the assay on hyalauronic acid (single skin cultures), the HA is 562 ng/mL and 480 ng/mL and 598 ng/mL and 545 ng/mL and 568 ng/mL.
